Values of other authors as cited in US20070027107A1, “Compositions and methods for treating estrogen-dependent diseases and conditions” (priority 2005, published 2007).

Settings: free carboxylic acids (without counterion) of alginate residues

SMILES | pKa
O=C[C@@H](O)[C@@H](O)[C@H](O)[C@@H](O)C(=O)O [G, L-guluronic acid] | 3.65
O=C[C@@H](O)[C@@H](O)[C@H](O)[C@H](O)C(=O)O [M, D-mannuronic acid] | 3.38
